# System: Transport facilitation protein genes
# Assay: DNA chip mRNA expression in yeast, transport facilitation protein genes (Table 5)
# Type: cell-based, Saccharomyces cerevisiae S288C
# Summary of the method: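 Whole-genome yeast DNA chip hybridization (65° C., >12 h) of Cy-labeled cDNA from S288C cells exposed 2 h at 25° C. to a sub-lethal toxicant dose in YPD; value is intensity relative to chemical-free control.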
smiles,measurement,setting,value
"Oc1cc(Cl)c(Cl)cc1Cl [(6), 2,4,5-trichlorophenol]",The level of expressed mRNA in the presence of chemical substance/The level of expressed mRNA in the absence of chemical substance,yeast gene YBL030C,1.1
same,The level of expressed mRNA in the presence of chemical substance/The level of expressed mRNA in the absence of chemical substance,yeast gene YBL099W,0.9
same,The level of expressed mRNA in the presence of chemical substance/The level of expressed mRNA in the absence of chemical substance,yeast gene YBR052C,2.1
same,The level of expressed mRNA in the presence of chemical substance/The level of expressed mRNA in the absence of chemical substance,yeast gene YBR068C,1.9
same,The level of expressed mRNA in the presence of chemical substance/The level of expressed mRNA in the absence of chemical substance,yeast gene YBR127C,1.1
same,The level of expressed mRNA in the presence of chemical substance/The level of expressed mRNA in the absence of chemical substance,yeast gene YBR132C,1.2
same,The level of expressed mRNA in the presence of chemical substance/The level of expressed mRNA in the absence of chemical substance,yeast gene YBR207W,1.6
same,The level of expressed mRNA in the presence of chemical substance/The level of expressed mRNA in the absence of chemical substance,yeast gene YBR293W,0.9
same,The level of expressed mRNA in the presence of chemical substance/The level of expressed mRNA in the absence of chemical substance,yeast gene YBR294W,1.2
same,The level of expressed mRNA in the presence of chemical substance/The level of expressed mRNA in the absence of chemical substance,yeast gene YBR298C,0.4
same,The level of expressed mRNA in the presence of chemical substance/The level of expressed mRNA in the absence of chemical substance,yeast gene YCL025C,0.9
same,The level of expressed mRNA in the presence of chemical substance/The level of expressed mRNA in the absence of chemical substance,yeast gene YCL038C,3.2
same,The level of expressed mRNA in the presence of chemical substance/The level of expressed mRNA in the absence of chemical substance,yeast gene YCR024C-A,1.2
same,The level of expressed mRNA in the presence of chemical substance/The level of expressed mRNA in the absence of chemical substance,yeast gene YCR037C,1.8
same,The level of expressed mRNA in the presence of chemical substance/The level of expressed mRNA in the absence of chemical substance,yeast gene YCR098C,1.6
same,The level of expressed mRNA in the presence of chemical substance/The level of expressed mRNA in the absence of chemical substance,yeast gene YDL128W,2.3
same,The level of expressed mRNA in the presence of chemical substance/The level of expressed mRNA in the absence of chemical substance,yeast gene YDL198C,0.8
same,The level of expressed mRNA in the presence of chemical substance/The level of expressed mRNA in the absence of chemical substance,yeast gene YDL210W,1.3
same,The level of expressed mRNA in the presence of chemical substance/The level of expressed mRNA in the absence of chemical substance,yeast gene YDL245C,1.1
same,The level of expressed mRNA in the presence of chemical substance/The level of expressed mRNA in the absence of chemical substance,yeast gene YDR038C,1.8
same,The level of expressed mRNA in the presence of chemical substance/The level of expressed mRNA in the absence of chemical substance,yeast gene YDR039C,1.1
same,The level of expressed mRNA in the presence of chemical substance/The level of expressed mRNA in the absence of chemical substance,yeast gene YDR086C,0.8
same,The level of expressed mRNA in the presence of chemical substance/The level of expressed mRNA in the absence of chemical substance,yeast gene YDR270W,2.2
same,The level of expressed mRNA in the presence of chemical substance/The level of expressed mRNA in the absence of chemical substance,yeast gene YDR298C,1.2
same,The level of expressed mRNA in the presence of chemical substance/The level of expressed mRNA in the absence of chemical substance,yeast gene YDR342C,1.1
same,The level of expressed mRNA in the presence of chemical substance/The level of expressed mRNA in the absence of chemical substance,yeast gene YDR343C,1.3
same,The level of expressed mRNA in the presence of chemical substance/The level of expressed mRNA in the absence of chemical substance,yeast gene YDR345C,1.2
same,The level of expressed mRNA in the presence of chemical substance/The level of expressed mRNA in the absence of chemical substance,yeast gene YDR387C,1.2
same,The level of expressed mRNA in the presence of chemical substance/The level of expressed mRNA in the absence of chemical substance,yeast gene YDR497C,0.6
same,The level of expressed mRNA in the presence of chemical substance/The level of expressed mRNA in the absence of chemical substance,yeast gene YEL027W,1.1
same,The level of expressed mRNA in the presence of chemical substance/The level of expressed mRNA in the absence of chemical substance,yeast gene YEL063C,1.3
same,The level of expressed mRNA in the presence of chemical substance/The level of expressed mRNA in the absence of chemical substance,yeast gene YEL065W,2.3
same,The level of expressed mRNA in the presence of chemical substance/The level of expressed mRNA in the absence of chemical substance,yeast gene YER053C,2.8
same,The level of expressed mRNA in the presence of chemical substance/The level of expressed mRNA in the absence of chemical substance,yeast gene YER119C,1.3
same,The level of expressed mRNA in the presence of chemical substance/The level of expressed mRNA in the absence of chemical substance,yeast gene YFL011W,1.0
same,The level of expressed mRNA in the presence of chemical substance/The level of expressed mRNA in the absence of chemical substance,yeast gene YFL041W,2.0
same,The level of expressed mRNA in the presence of chemical substance/The level of expressed mRNA in the absence of chemical substance,yeast gene YFL050C,0.9
same,The level of expressed mRNA in the presence of chemical substance/The level of expressed mRNA in the absence of chemical substance,yeast gene YFL054C,2.4
same,The level of expressed mRNA in the presence of chemical substance/The level of expressed mRNA in the absence of chemical substance,yeast gene YFL055W,1.1
same,The level of expressed mRNA in the presence of chemical substance/The level of expressed mRNA in the absence of chemical substance,yeast gene YGL006W,1.0
same,The level of expressed mRNA in the presence of chemical substance/The level of expressed mRNA in the absence of chemical substance,yeast gene YGL008C,1.9
same,The level of expressed mRNA in the presence of chemical substance/The level of expressed mRNA in the absence of chemical substance,yeast gene YGL104C,2.1
same,The level of expressed mRNA in the presence of chemical substance/The level of expressed mRNA in the absence of chemical substance,yeast gene YGL167C,2.0
same,The level of expressed mRNA in the presence of chemical substance/The level of expressed mRNA in the absence of chemical substance,yeast gene YGL255W,1.1
same,The level of expressed mRNA in the presence of chemical substance/The level of expressed mRNA in the absence of chemical substance,yeast gene YGR055W,1.1
same,The level of expressed mRNA in the presence of chemical substance/The level of expressed mRNA in the absence of chemical substance,yeast gene YGR065C,2.4
same,The level of expressed mRNA in the presence of chemical substance/The level of expressed mRNA in the absence of chemical substance,yeast gene YGR082W,1.1
same,The level of expressed mRNA in the presence of chemical substance/The level of expressed mRNA in the absence of chemical substance,yeast gene YGR096W,1.7
same,The level of expressed mRNA in the presence of chemical substance/The level of expressed mRNA in the absence of chemical substance,yeast gene YGR138C,0.8
same,The level of expressed mRNA in the presence of chemical substance/The level of expressed mRNA in the absence of chemical substance,yeast gene YGR191W,1.1
same,The level of expressed mRNA in the presence of chemical substance/The level of expressed mRNA in the absence of chemical substance,yeast gene YGR197C,0.5
same,The level of expressed mRNA in the presence of chemical substance/The level of expressed mRNA in the absence of chemical substance,yeast gene YGR224W,0.8
same,The level of expressed mRNA in the presence of chemical substance/The level of expressed mRNA in the absence of chemical substance,yeast gene YGR260W,0.9
